Data reported in patent US11919892B1, “2-(benzo[d]thiazol-2-yl)-N'-(2-(5-(4-chlorophenyl)-1,3,4-oxadiazol-2-ylthio)acetoxy)acetimidamide as an antimicrobial compound” (KING FAISAL UNIVERSITY, priority 2023, dated 2024).

How the values were obtained:
[1] = system: Pseudomonas aeruginosa; assay: Agar plate disc-diffusion, antibacterial, Pseudomonas aeruginosa; assay type: cell-based; conditions: nutrient agar, 37° C., 48 hours
Experimental: (§1) The agar plate disc-diffusion method was applied. Sterilized filter papers (6 mm in diameter) were wetted with 10 μL of a solution of 2-(benzo[d]thiazol-2-yl)-N′-(2-(5-(4-chlorophenyl)-1, 3,4-oxadiazol-2-ylthio)acetoxy)acetimidamide (3) to be tested, containing 10 mg/mL in DMSO, and the discs were allowed to air dry. The discs were then placed onto the surface of agar plates (nutrient agar for bacteria and Sabouraud's dextrose agar for fungi) seeded with the test organism. Each plate contained 15 mL of the agar medium, previously seeded with 0.2 mL of the broth culture of each organism pregrown for 18 hours. The plates were incubated at 37° C. for 48 hours and 72 hours for fungi. The inhibition zones were measured in mm. Discs impregnated with DMSO were used as a control, and their inhibition zone was subtracted from the tested compound's actual inhibition zone.

[2] = system: Staphylococcus aureus; assay: Agar plate disc-diffusion, antibacterial, Staphylococcus aureus; assay type: cell-based; conditions: nutrient agar, 37° C., 48 hours
Experimental: as §1

[3] = system: Chrysosporium keratinophilum; assay: Agar plate disc-diffusion, antifungal, Chrysosporium keratinophilum; assay type: cell-based; conditions: Sabouraud's dextrose agar, 72 hours
Experimental: as §1

[4] = system: Bacillus Cereus; assay: Agar plate disc-diffusion, antibacterial, Bacillus cereus; assay type: cell-based; conditions: nutrient agar, 37° C., 48 hours
Experimental: as §1

[5] = system: Escherichia coli; assay: Agar plate disc-diffusion, antibacterial, Escherichia coli; assay type: cell-based; conditions: nutrient agar, 37° C., 48 hours
Experimental: as §1

[6] = system: Aspergillus flavus; assay: Agar plate disc-diffusion, antifungal, Aspergillus flavus; assay type: cell-based; conditions: Sabouraud's dextrose agar, 72 hours
Experimental: as §1

[7] = A = concentration of comp. = 10,000 μL
[8] = B = concentration of comp. = 30,000 μL
[9] = C = concentration of comp. = 50,000 μL

SMILES: N/C(Cc1nc2ccccc2s1)=N\OC(=O)CSc1nnc(-c2ccc(Cl)cc2)o1 [compound 3, 2-(benzo[d]thiazol-2-yl)-N′-(2-(5-(4-chlorophenyl)-1,3,4-oxadiazol-2-ylthio)acetoxy)acetimidamide]
- inhibition zone, Pseudomonas aeruginosa, A [1, 7]: 23 mm
- inhibition zone, Pseudomonas aeruginosa, B [1, 8]: 27 mm
- inhibition zone, Pseudomonas aeruginosa, C [1, 9]: 43 mm
- inhibition zone, Staphylococcus aureus, A [2, 7]: 33 mm
- inhibition zone, Staphylococcus aureus, B [2, 8]: 40 mm
- inhibition zone, Staphylococcus aureus, C [2, 9]: 52 mm
- inhibition zone, Chrysosporium keratinophilum, A [3, 7]: 26 mm
- inhibition zone, Chrysosporium keratinophilum, B [3, 8]: 31 mm
- inhibition zone, Chrysosporium keratinophilum, C [3, 9]: 49 mm
- inhibition zone, Bacillus Cereus, A ([4]; A =): 25 mm
- inhibition zone, Bacillus Cereus, B [4, 8]: 28 mm
- inhibition zone, Bacillus Cereus, C [4, 9]: 39 mm
- inhibition zone, Escherichia coli, A [5, 7]: 25 mm
- inhibition zone, Escherichia coli, B [5, 8]: 34 mm
- inhibition zone, Escherichia coli, C [5, 9]: 47 mm
- melting point: 157 to 158 °C
- inhibition zone, Aspergillus flavus, A [6, 7]: 24 mm
- inhibition zone, Aspergillus flavus, B [6, 8]: 29 mm
- inhibition zone, Aspergillus flavus, C [6, 9]: 41 mm
